We go through 1 molecule from patent publication US12552790B2, “Positive modulators of the muscarinic acetylcholine receptor M4” (Vanderbilt University, priority 2023, dated 2026).

For this test, the system named is amphetamine-induced hyperlocomotion in male Sprague-Dawley rats. The test is described as follows: Amphetamine-induced hyperlocomotion in rats. The class given is in vivo. Conditions: 10 mg/kg oral gavage, rat, amphetamine 0.75 mg/kg s.c. How it is done:
Drugs: d-Amphetamine hemisulfate was obtained from Sigma (St. Louis, MO). Salt-correction was used to determine the correct amount of the d-amphetamine hemisulfate form in milligrams to add to sterile water in order to yield a 0.75 mg/mL solution, which would be dosed at 1 mL/kg body weight of each animal. […] The solutions were formulated so that animals were injected with a volume equal to 10 mL/kg body weight for all compounds. The appropriate amount according to the dosage was mixed in 10% Tween 80 (Sigma) in sterile water. The mixtures were then vortexed and stored in a 39° C. sonication bath for 1 hour, until in a solution or microsuspension (depending on dose).
Animals: Male Sprague-Dawley rats weighing 239-300 grams and averaging 265 g (Harlan, Inc., Indianapolis, IN) were used. They were housed in the animal care facility certified by the American Association for the Accreditation of Laboratory Animal Care (AALAC) under a 12-hour light/dark cycle (lights on: 6 a.m.; lights off: 6 p.m.) and had free access to food and water. The animals used in this experiment were food-deprived the evening before experimentation for oral dosing of compound/vehicle. The experimental protocols performed during the light cycle were approved by the Institutional Animals Care and Use Committee of Vanderbilt University and conformed to the guidelines established by the National Research Council Guide for the Care and Use of Laboratory Animals.
Amphetamine-induced Hyperlocomotion: Male Harlan Sprague Dawley rats were habituated in Smart Open Field locomotor activity test chambers (Hamilton-Kinder, San Diego, CA) with 16×16 photo beams to automatically record locomotor activity. […] They were monitored for an additional 30 minutes and then injected subcutaneously with vehicle or 0.75 mg/kg amphetamine. Animals were then monitored for an additional 60 minutes, for a total of 120 minutes. Data were expressed as changes in ambulation defined as total number of beam breaks per 5 minute interval. Terminal brain and plasma samples were collected at the end of the study for pharmacokinetic analysis.
Data Analysis: Behavioral data were analyzed using a two-way ANOVA with main effects of treatment and time. Post hoc analysis was performed using a Dunnett's t-test with all treatment groups compared to the Vehicle/amphetamine group (VAMP) group using GraphPad Prism V.5.04 (GraphPad Software, San Diego, CA). Data were graphed using GraphPad Prism V.5.04 (GraphPad Software, San Diego, CA). A probability of p≤0.05 was taken as the level of statistical significance. In addition, the total number of beam breaks from the amphetamine administration (65 min) to the end of the study (120 min) was calculated and graphed. Percent Reversal was calculated as follows using Microsoft Excel: In each animal, total ambulation from t=65 to t=120 was summed. The mean of each sum was calculated in the VAMP group. Then, for each animal, Percent Reversal was calculated with the following formula: Percent Reversal=100−{[(total ambulation in each animal from t=65 to t=120)/(mean of each sum from t=65 to t=120 in VAMP group)]*100}. The mean Percent Reversal, as well as the standard error, was calculated for each dose group using GraphPad Prism V5.04.

`Cc1nnc2sc(C(=O)NCc3ccc(S(=O)(=O)C(F)(F)F)cc3)c(N)c2c1C` [VU0467154, reference compound]: the “percent reversal of amphetamine-induced hyperlocomotion” value came out at 56.2%.
